This note sets out measurements from US10072262B2, “RIG-I ligands and methods for producing them” (RHEINISCHE FRIEDRICH-WILHELMS-UNIVERSITÄT BONN, priority 2012, dated 2018).

This data set has as its target T1, RIG-I (Homo sapiens, UniProt O95786).
T1 construct: endogenous in cells
T1 sequence (O95786 1-925): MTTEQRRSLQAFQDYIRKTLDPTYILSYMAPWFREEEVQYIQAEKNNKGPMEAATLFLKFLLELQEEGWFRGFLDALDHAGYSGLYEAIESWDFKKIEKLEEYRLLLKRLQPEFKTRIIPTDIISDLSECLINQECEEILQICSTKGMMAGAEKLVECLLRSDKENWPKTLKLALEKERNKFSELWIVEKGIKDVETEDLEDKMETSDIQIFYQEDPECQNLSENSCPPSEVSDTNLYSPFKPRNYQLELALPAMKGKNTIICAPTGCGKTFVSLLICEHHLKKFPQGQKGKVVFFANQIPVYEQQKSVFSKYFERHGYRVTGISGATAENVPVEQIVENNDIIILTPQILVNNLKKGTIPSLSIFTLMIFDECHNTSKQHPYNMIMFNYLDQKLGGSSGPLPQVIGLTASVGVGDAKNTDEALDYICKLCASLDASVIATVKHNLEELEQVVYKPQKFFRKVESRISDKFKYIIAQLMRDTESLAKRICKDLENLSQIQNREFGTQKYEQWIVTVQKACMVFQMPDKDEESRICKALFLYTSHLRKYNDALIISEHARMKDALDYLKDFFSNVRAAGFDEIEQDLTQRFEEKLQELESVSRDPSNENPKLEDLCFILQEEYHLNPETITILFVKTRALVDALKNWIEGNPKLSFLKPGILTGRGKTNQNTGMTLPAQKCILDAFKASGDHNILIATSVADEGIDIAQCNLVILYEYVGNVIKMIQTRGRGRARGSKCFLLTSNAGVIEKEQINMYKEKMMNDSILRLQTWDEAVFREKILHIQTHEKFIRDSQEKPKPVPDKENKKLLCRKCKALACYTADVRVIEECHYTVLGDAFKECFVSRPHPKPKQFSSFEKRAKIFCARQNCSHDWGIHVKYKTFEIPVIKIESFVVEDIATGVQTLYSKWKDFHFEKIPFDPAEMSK
Briefly: RIG-I stimulation: chloroquine-blocked PBMCs, duplex lipofection, IFNa ELISA at 20 h. The data set is classed as cell-based. Particulars: FIG. 7B titration. On the procedure:
A screen of 2′-O-methylations resolved positions to introduce RIG-I selectivity (FIG. 5). For the sense (A) and antisense (B) strand of OH-GFP2 a full 2′-O-methylation screen was performed. Each position was modified individually by 2′-O-methylation and used for stimulation of RIG-I, TLR7 or TLR8. For stimulation of RIG-I, peripheral blood mononuclear cells (PBMCs) were blocked with Chloroquine and stimulated by lipofection of the duplex. IFNa was measured 20 h post stimulation by ELISA. For TLR7 and TLR8 only the relevant single-strand was screened for stimulatory capacity and checked on unblocked PBMCs. The single-strands were transfected by complexation with poly-L-Arginine and 20 h post transfection for TLR7 activation IFNa, for TLR8 activation IL12p70 was measured by ELISA. […]
FIG. 6: (A) Methylations inert for RIG-I activation were combined in the antisense strand and the resulting duplex was used for stimulation of chloroquine-blocked PBMCs at a concentration of 0.8 μg/ml. IFNa was measured by ELISA at 20 h post stimulation. […]
FIG. 7: (A) PBMCs were blocked with Chloroquine and stimulated with duplexes at a concentration of 0.8 μg/ml. 20 h post stimulation IFNa was measured by ELISA. […] 20 h post stimulation IFNa was determined in the supernatant by ELISA. […]
(In general: ELISA stands for enzyme-linked immunosorbent assay.)

“s15 PTO/as3 PTO: G*A*C GCUGACCCUGAAmGUUCAUC U U / C U GmCGACUGGGACUU CAAGUAG*A*A; * = PTO, Nm = 2′-OCH3 (sense GACGCUGACCCUGAAGUUCAUCUU; antisense CUGCGACUGGGACUUCAAGUAGAA; phosphorothioate and 2'-O-methyl modifications, chemistry not fully specified; one strand is listed 3' to 5')”: where the note is “compared with s15/as3”, the “duplex immune activity (effect of 5′-PTO modification), in words” value is recorded as “maximum increase in activity”.
Take “3P-GFP2: ppp-GACGCUGACCCUGAAGUUCAUCUU / CUGCGACUGGGACUUCAAGUAGAA; unmodified triphosphate duplex (5'-triphosphate, chemistry not fully specified; one strand is listed 3' to 5')”: the “IFNa corresponding to 100%” value (50 nM, chloroquine-blocked PBMCs, Lipofectamine, 20 h, 4 donors) came out at 16044 pg/mL.
